The test system of one assay is implant-bone interface. Nature of the assay: Removal torque of coated implants just after coating and after 3-year storage. In kind it is in vivo. The following applies: for removal torque compared with other bisphosphonates and bare implant (in words): summary of Table 1, bisphosphonate-coated implants; for removal torque compared with other dental implants (in words): summary of Table 2, implants coated with both rhBMP-2 and bisphosphonate. More on the design: Removal torque: unit not given here. The method, then: In order to confirm the long-time storage stabilities of implant, osseointegration at implant-bone interface were measured via removal torque.
Each dental implant was coated with various bisphosphonates as described example 1 and its removal torque was measured just after coating step and 3-year self-storage, respectively.
Similarly, osseointegration at implant-bone interface were measured via removal torque for dental implants wherein the osteoclast activity inhibitor coating film further comprises a bone growth factor (BMP-2) as shown in Table 2.

For a further assay, the system named is tibia of micropigs. As to conditions: implants coated with rhBMP-2 and alendronate vs implants coated only with rhBMP-2, after 16 days, FIG. 6. The protocol:
(§1) In order to impart hydrophilicity to the implants which were subjected to the above processes, the titanium surface was hydrophilized by plasma treatment (RFGD, O2, etc.) for 1 minutes and light radiation (ultraviolet rays, ultraviolet-ozone, etc.) for 5 minutes. Then, a 10 ml solution of 40 μg Alendronate, 40 μg Zolendronate, 1 μg BMP-2, and 40 μg Alendronate+1 μg BMP-2 was uniformly applied to the surface, and the prepared implants, in which the solution was not dried, were used in the following Examples 2, 3 and 4.

In assay [1] the test system is mandible and tibia of micropigs. As to conditions: hydrophilized implants coated with alendronate vs uncoated implants, 0 to 6 weeks, FIGS. 3 and 4. The method, then:
as §1

The mark [2] stands for this setting: storage period 0 year, implants coated with 10 ml solution of 40 μg bisphosphonate.
Setting [3] is: storage period 0 year, implants coated with 10 ml solution of 40 μg bisphosphonate and 1 μg rhBMP-2.
[4] abbreviates: storage period 3 year, implants coated with 10 ml solution of 40 μg bisphosphonate.
Setting [5] is: storage period 3 year, implants coated with 10 ml solution of 40 μg bisphosphonate and 1 μg rhBMP-2.

SMILES strings stand for the structures.

Take `NCCC(O)(P(=O)(O)O)P(=O)(O)O` [Pamindronate]: the Removal torque is 99.6 ± 7.9 in the assay with implant-bone interface (setting [2]), 127.5 ± 12.2 with implant-bone interface (setting [3]), 84.1 ± 11.4 in the assay with implant-bone interface (setting [4]) and 109.7 ± 12.2 in the assay on implant-bone interface (setting [5]).
Regarding `O=P(O)(O)C(O)(Cc1cccnc1)P(=O)(O)O` [Resendronate], the Removal torque in the assay on implant-bone interface (setting [2]) came out at 103.5 ± 9.3; with implant-bone interface (setting [3]) it was 128.1 ± 11.6; in the assay with implant-bone interface (setting [4]), 83.2 ± 9.3.
`O=P(O)(O)C(O)(Cn1ccnc1)P(=O)(O)O` [Zolendronate]: the Removal torque turned out to be 104.4 ± 11.1 with implant-bone interface (setting [2]), 134.4 ± 11.9 in the assay on implant-bone interface (setting [3]), 103.8 ± 8.9 in the assay on implant-bone interface (setting [4]) and 132.5 ± 10.7 with implant-bone interface (setting [5]). For the same molecule, the “removal torque compared with other bisphosphonates and bare implant (in words)” value with implant-bone interface was “higher removal torque”. For the same molecule, the “removal torque compared with other dental implants (in words)” value in the assay on implant-bone interface is “higher removal torque value”.
On to `NCCCC(O)(P(=O)(O)O)P(=O)(O)O` [Alendronate], for which the “increase of removal torque compared to the negative control group” value in the assay on tibia of micropigs was “about 23%”. Further, the “decrease in ISQ values compared to the negative control group” value in assay [1] was “little decrease in ISQ values or the degree of the decrease was very lower”. In addition, the Removal torque was 100.2 ± 8.4 in the assay on implant-bone interface (setting [2]), 130.1 ± 9.7 in the assay on implant-bone interface (setting [3]), 99.4 ± 11.8 with implant-bone interface (setting [4]) and 129.8 ± 13.1 in the assay on implant-bone interface (setting [5]). Also, in the assay with implant-bone interface, the “removal torque compared with other bisphosphonates and bare implant (in words)” value is reported as “higher removal torque”. Moreover, the “removal torque compared with other dental implants (in words)” value in the assay on implant-bone interface is listed as “higher removal torque value”.
As to `CCCCCN(C)CCC(O)(P(=O)(O)O)P(=O)(O)O` [Ibandronate], the Removal torque in the assay on implant-bone interface (setting [2]) amounted to 98.4 ± 12.1; in the assay on implant-bone interface (setting [3]), 128.8 ± 13.4; in the assay on implant-bone interface (setting [4]) it was 85.4 ± 12.5; with implant-bone interface (setting [5]) it was 110.8 ± 13.4.

The values above are taken from patent US10188770B2, “Dental implant having enhanced early stability and method for manufacturing same” (OSSTEMIMPLANT CO., LTD., priority 2014, dated 2019).
